Columns and labels:
[1] = tested on: MM.1S cells; settings: for inhibition of proliferation of MM.1S cells: 24 h, dexamethasone 0.1 or 1 μM, PTK787 5 μM; for inhibition of proliferation of MM.1S cells / inhibition of MM.1S proliferation with IL-6: p<0.001; for inhibition of MM.1S proliferation without IL-6: comparison arm
Experimental: MM cells are first starved for 12 h in RPMI-1640 media containing 2% fetal bovine serum, and then plated into 96-well microtiter plates (Costar, Cambridge, Mass.), in the presence of drug or DMSO control. Experiments are also performed in the presence or absence of VEGF165 (R and D Systems). Proliferation is measured by the incorporation of [^3H]-thymidine (NEN Products, Boston, Mass.). Specifically, cells are pulsed with [^3H]-thymidine (0.5 μCi/well) for the last 6 h of 48 h cultures, harvested onto glass filters with an automatic cell harvester (Cambridge Technology, Cambridge, Mass.), and counted using a LKB Betaplate scintillation counter (Wallac, Gaithersburg, Md.). Measurement of cell viability is performed colorimetrically by MTS assay, utilizing the CellTiter96 AQueous One Solution Reagent (Promega, Madison, Wis.). Cells are exposed to the MTS for the last 2 h of 48 h cultures, and absorbance is measured using an ELISA plate reader (Molecular Devices Corp., Sunnyvale, Calif.) at OD of 570 nm.

[2] = tested on: MM.1S cells; test: Survival / cell death of MM.1S cells in the presence of dexamethasone and IL-6; format: cell-based, human; settings: for inhibition of survival of MM.1S cells: 24 h, dexamethasone 0.1 or 1 μM, PTK787 5 μM, p<0.001
Experimental: MM.1S cells are incubated for 24 h in 1% RPMI, in the presence or absence of dexamethasone (0.1 or 1 μM), PTK787 (5 μM), IL-6 (20 and 100 ng/ml) and VEGF (50 ng/ml).

[3] = tested on: IL-6; test: IL-6 levels in supernatants of MM.1S/BMSC co-culture (ELISA); settings: MM.1S/BMSC co-culture supernatants, 48 h
Experimental: Cytokine levels are measured in supernatants from the co-culture system described above. VEGF and IL-6 concentrations are measured using commercially available ELISA kits (R&D Systems). Statistical significance of differences is determined using unpaired Student's t-test. The minimal level of significance is considered as p<0.05.
Supernatants obtained from a co-culture of MM.1S cells with BMSCs are isolated at 48 h, and IL-6 levels are measured using ELISA assay.

[4] = tested on: MM cell lines; test: Proliferation of MM cell lines and patient tumor cells ([3H]-thymidine uptake); format: cell-based, human
Experimental: FIGS. 2 to 4. Dose-related effect of PTK787 on proliferation of MM cell lines and patient tumor cells. MM.1S, MM.1R, RPMI 8226, patient PCL cells, patient MM cells and HUVE cells were incubated in the presence of 0 (□), 1 (▪), 5 ( ? ), 10 ( ? ) and 20 ( ? ) μM of PTK787. In addition, HUVE cells are also exposed to 0.01 ( ? ), and 0.1 ( ? ) μM of drug. Proliferation is measured as a percentage of 3H-dT uptake relative to standard. The experiments are performed in triplicate, and standard deviation bars are shown.
RPMI 8226 and U266 human MM cell lines are obtained from the American Type Culture Collection (ATCC) of Rockville, Md. Patient derived MM cells are purified from patient BM samples, as described by Y. T. Tai, G. Teoh, Y. Shima, et al in J. Immunol. Methods 235:11, 2000. All human MM cell lines are cultured in RPMI-1640 media (Sigma Chemical, St. Louis, Mo.), containing 10% fetal bovine serum (FBS), 2 mmol/L L-glutamine (L-glut, GIBCO, Grand Island, N.Y.), 100 U/mL penicillin and […] streptomycin (P/S, GIBCO). MM patient cells are ≧95% CD38+, CD45RA−. Bone marrow stromal cells (BMSCs) are prepared from aspirates of MM patients as well as healthy donors as described by D. Gupta, S. Treon, Y. Shima, et al in Leukemia, 2001 and S. Gartner and H. S. Kaplan in Proc. Natl. Acad. Sci. USA 77:4756, 1980. […]

[5] = tested on: A431, Ls174T, HT-29, PC-3 tumor cells; settings: cited from earlier work
[6] = tested on: MM.1S cells; test: Proliferation of MM.1S cells in an adhesion co-culture system with BMSCs; format: cell-based, human; settings: 5 μM, compared to controls, p<0.0001
Experimental: (§1) Co-culturing of MM.1S cells or patient PCL cells with BMSCs increases growth of tumor cells by 1.8 to 2.8-fold, compared to the combination of BMSCs and MM cells alone. Addition of PTK787 (5 μM) to this co-culture system decreases proliferation of both MM.1S cells and patient PCL cells by 75% (p<0.0001), when compared to controls. These effects are observed whether the BMSCs are derived from a normal donor or patient BM.

[7] = tested on: BMSCs; test: Viability of BMSCs (trypan blue exclusion and MTS assay); format: cell-based, human; settings: with PTK787 in the co-culture system
[8] = tested on: patient PCL cells; test: Proliferation of patient PCL cells in an adhesion co-culture system with BMSCs; format: cell-based, human; settings: 5 μM, compared to controls, p<0.0001
Experimental: as §1

[9] = tested on: human carcinomas (A431, Ls174T, HT-29, PC-3); settings: Cancer Res. 60: 2178, 2000, cited from earlier work
[10] = tested on: MM.1S cells; test: Transwell cell migration assay (modified Boyden chamber); format: cell-based, human
Experimental: MM.1S cells are exposed to PTK787 at concentrations 0, 1, 5 and 10 μM for 4 h and then added to the upper chamber of a transwell system. To the lower wells are added either VEGF (□, 10 ng/ml) or CD40 (Δ, 10 ng/ml), and cells are allowed to migrate to the lower chamber over a 5 h period. A lower chamber without any VEGF or CD40 (∘) serves as a control. Migrated cells are counted on a Beckman Coulter counter, and a migration index is obtained as described in Example 2, below. Experiments are performed in triplicate, and standard deviation bars are shown.
The migration assay is performed in a modified Boyden chamber system; using a 24 well plate with 8 μm pore size inserts. Prior to the assay, the upper and lower chambers are pre-coated with fibronectin (10 μg/ml). MM.1S cells are starved in 2% RPMI media for 6 hours prior to assay, then treated with drug or DMSO control for 4 h. MM cells (2×10^6 cells/ml) are then placed into the upper chamber of the transwell system. To the lower chamber is added RPMI (1% FBS), 0 or 10 ng/ml of VEGF165, or an activating MoAb to CD40 (10 ng/ml). The plates are then incubated at 37° C. for 6 h, and then cells in the lower chamber are harvested. The number of live migrated cells is gated and measured using a Beckman Coulter counter. A migration index is calculated to compare migration of cells relative to control. The migration index is defined herein as the percentage of live migrated cells in the sample (with or without drug, and ±VEGF), divided by the percentage of live migrated cells in the control (no drug, no VEGF).

[11] = tested on: MM.1S cells; test: Proliferation of MM cells in a modified Boyden chamber transwell co-culture system with BMSCs; format: cell-based, human; settings: 5 μM; transwell co-culture with BMSCs without contact; 48 h; p<0.001
Experimental: Proliferation is measured in a modified Boyden chamber transwell system, using 24-well plates with a […] pore size inserts (Costar). BMSCs (4×10^4 cells/well) are plated in the lower chamber, starved, and incubated in drug as described above. MM cells (20×10^4 cells/ml) are then placed in the upper chamber (insert), and [^3H]-thymidine uptake in the individual chambers is measured at 48 h as described above.
MM.1 S cells are placed in the upper chamber of a transwell co-culture system in order to preclude direct contact between MM cells and BMSCs, but nonetheless allow for diffusion of humoral factors. Despite the lack of contact between the two cell types, uptake of [^3H]-dT by MM.1S cells incubated with BMSCs is increased by 2.2-fold (p<0.0001) at 48 h. […] When PTK787 (5 μM) is used in this co-culture system, it reduces proliferation of MM.1S cells by 62% (p<0.001).

| Structure (SMILES) | inhibition of proliferation of MM.1S cells [1] [%] | inhibition of MM.1S proliferation with IL-6 [1] [%] | inhibition of MM.1S proliferation without IL-6 [1] [%] | inhibition of survival of MM.1S cells [2] [%] | decrease of IL-6 concentrations [3] [%] | proliferation of MM.1S, Dex-resistant MM.1R, RPMI, patient PCL and patient MM cells ([4]; 0-20 μM PTK787, 3H-dT uptake) | proliferation in MM cell lines with or without VEGF ([4]; PTK787 (1 to 5 μM), presence or absence of VEGF) | direct effect on tumor cells [5] | decrease of proliferation of MM.1S cells [6] [%] | viability of BMSCs [7] [%] | decrease of proliferation of patient PCL cells [8] [%] | growth of human carcinomas transplanted orthotopically into mice ([9]; A431, Ls174T, HT-29, PC-3) | vessel density in the tumor tissues [9] | VEGF-induced migration of MM.1S cells ([10]; 1 μM PTK787, VEGF 10 ng/ml, p=0.002) | baseline and VEGF-induced migration of MM.1S cells ([10]; 5 and 10 μM PTK787) | migration of MM.1S cells induced by CD40 ([10]; activating MoAb to CD40 10 ng/ml) | cell death of MM.1S cells without IL-6 ([2]; PTK787 alone, second value of '54% vs. 65%') [%] | cell death of MM.1S cells with IL-6 ([2]; PTK787 plus IL-6, first value of '54% vs. 65%', p<0.01) [%] | reduction of proliferation of MM.1S cells [11] [%] |
| --- | --- | --- | --- | --- | --- | --- | --- | --- | --- | --- | --- | --- | --- | --- | --- | --- | --- | --- | --- |
| C[C@@H]1C[C@H]2[C@@H]3CCC4=CC(=O)C=C[C@]4(C)[C@@]3(F)[C@@H](O)C[C@]2(C)[C@@]1(O)C(=O)CO [Dexamethasone, dexamethasone, reference compound] | 58 | 16 | 70.5 | 83 |  |  |  |  |  |  |  |  |  |  |  |  |  |  |  |
| Clc1ccc(Nc2nnc(Cc3ccncc3)c3ccccc23)cc1 [PTK787] | 35 | 64.7 | 39.3 | 46 | 70 | decreases, in a dose dependent manner | abrogates proliferation both in the presence or absence of VEGF | does not have a direct effect | 75 | 95 | 75 | inhibits the growth | does reduce vessel density | reduced to baseline levels | further reduces | does not significantly inhibit | 65 | 54 | 62 |

— US20090170862A1, “USE OF C-KIT INHIBITORS FOR THE TREATMENT OF MYELOMA” (priority 2001, published 2009)
